Assay results: patent US6335350B1, “Acetamide and substituted acetamide-containing thiourea inhibitors of herpes viruses” (American Home Products Corporation, priority 1998, dated 2002)
Converted amounts (≈) assume the structure as drawn.

Legend:
HCMV wild-type = experiment: HCMV yield assay; format: cell-based, human cytomegalovirus; conditions: Human betaherpesvirus 5, Fibroblast, human foreskin fibroblasts; read-out: IC50 Ug/ml HCMV
In short: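 HCMV wild-type infected human foreskin fibroblast monolayers at MOI typically 0.2 with varying compound concentrations; virus yield harvested at 3 days post-infection and titered on fibroblasts without inhibitor, plaques counted at 2 weeks. IC50 or IC90 = compound amount reducing yield titer by 50% or 90%.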

HSV-1 = experiment: HSV Antiviral (ELISA) Assay; format: cell-based, herpes simplex virus type 1; conditions: Vero cells, HSV-1; for IC50: Human alphaherpesvirus 1, Vero, read-out: IC50 Ug/ml HSV
In short: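 Vero cells in DMEM/2% FBS pretreated with compound 30 min before HSV-1 infection (MOI 0.006), then ~24 h at 37 °C. Viral gD detected by ELISA with β-galactosidase secondary and 4-methylumbelliferyl-galactoside (ex 365/em 450 nm); IC50 from fluorescence versus untreated infected cells.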

VZV strain Ellen = experiment: VZV Antiviral (ELISA) Assay; format: cell-based, varicella-zoster virus; conditions: Human alphaherpesvirus 3, Fibroblast, human foreskin fibroblast cells; for IC50: read-out: IC50 Ug/ml VZV; for inhibition at 10 µg/mL: read-out: % inhibition 10 ug/ml VZV, 10 ug/ml
In short: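 HFF cells infected overnight with VZV Ellen at MOI <0.1, mixed with uninfected cells, were seeded with compound and grown 3 days at 37° C in DMEM/2% FBS. Viral glycoprotein II was detected by ELISA with β-galactosidase-linked secondary; IC50 from fluorescence versus no-compound wells.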

`CC(=O)Nc1ccc(NC(=S)Nc2ccc(OCCO)c(Cl)c2)cc1` [Example 265, N-(4-{3-[3-Chloro-4-(2-hydroxy-ethoxy)-phenyl]-thioureido}-phenyl)-acetamide] showed an IC50 (HCMV wild-type) greater than 50 µg/mL, an IC50 (HSV-1) greater than 50 µg/mL and an IC50 (VZV strain Ellen) greater than 10 µg/mL. It also gave an inhibition at 10 µg/mL (VZV strain Ellen) of 20%.

`CC(=O)Nc1ccc(NC(=S)Nc2ccc(NC(C)=O)c(Cl)c2)cc1` [Example 312, N-{4-[3-(4-Acetylamino-phenyl)-thioureido]-2-chloro-phenyl}-acetamide] showed an IC50 (HCMV wild-type) of 50 µg/mL (≈ 133 µM), an IC50 (HSV-1) of 50 µg/mL (≈ 133 µM) and an IC50 (VZV strain Ellen) greater than 10 µg/mL. The inhibition at 10 µg/mL (VZV strain Ellen) was 22%.

Work on `CC(=O)Nc1ccc(NC(=S)Nc2ccc(NC(=O)CN3CCCCC3)c(Cl)c2)cc1` [Example 363, N-{4-[3-(4-Acetylamino-phenyl)-thioureido]-2-chloro-phenyl}-2-piperidin-1-yl-acetamide] yielded an IC50 (HCMV wild-type) of 7 µg/mL (≈ 15.2 µM), an IC50 (HSV-1) greater than 10 µg/mL and an IC50 (VZV strain Ellen) greater than 10 µg/mL. It also gave an inhibition at 10 µg/mL (VZV strain Ellen) of 58%.

`CC(=O)Nc1ccc(NC(=S)Nc2ccc(OCCN(C)C)c(Cl)c2)cc1` [Example 343, N-(4-{3-[3-Chloro-4-(2-dimethylamino-ethoxy)-phenyl]-thioureido}-phenyl)-acetamide] gave an IC50 (HCMV wild-type) of 40 µg/mL (≈ 98.3 µM), an IC50 (HSV-1) greater than 50 µg/mL and an IC50 (VZV strain Ellen) greater than 10 µg/mL. For the same molecule, the inhibition at 10 µg/mL (VZV strain Ellen) was 38%.

Molecule `CC(=O)Nc1ccc(NC(=S)Nc2cc(Cl)cc(Cl)c2)cc1` [Example 933, N-{4-[3-(3,5-Dichloro-phenyl)-thioureido]-phenyl}-acetamide] has an IC50 (HCMV wild-type) of 1.2 µg/mL (≈ 3.39 µM), an IC50 (HSV-1) greater than 10 µg/mL and an IC50 (VZV strain Ellen) greater than 10 µg/mL. For the same molecule, the inhibition at 10 µg/mL (VZV strain Ellen) was 21%.

Work on `CC(=O)Nc1ccc(NC(=S)Nc2cc(Cl)c(C)c(Cl)c2)cc1` [Example 892, N-{4-[3-(3,5-Dichloro-4-methyl-phenyl)-thioureido]-phenyl}-acetamide] yielded an IC50 (HCMV wild-type) of 1 µg/mL (≈ 2.72 µM), an IC50 (HSV-1) of 10 µg/mL (≈ 27.2 µM) and an IC50 (VZV strain Ellen) greater than 10 µg/mL. The inhibition at 10 µg/mL (VZV strain Ellen) was 25%.

With `COc1c(NC(=S)Nc2ccc(NC(C)=O)cc2)cc(Cl)c(C)c1Cl` [Example 876, N-{4-[3-(3,5-Dichloro-2-methoxy-4-methyl-phenyl)-thioureido]-phenyl}-acetamide] the IC50 (HCMV wild-type) was 1 µg/mL (≈ 2.51 µM), the “IC50 Ug/ml HSV” value (HSV-1) was 10 Ug/ml and the IC50 (VZV strain Ellen) was greater than 10 µg/mL. It also gave an inhibition at 10 µg/mL (VZV strain Ellen) of 58%.

`CC(=O)Nc1ccc(NC(=S)Nc2ccc(N(CCO)CCO)c(Cl)c2)cc1` [Example 905, N-[4-(3-{4-[Bis-(2-hydroxy-ethyl)-amino]-3-chloro-phenyl}-thioureido)-phenyl]-acetamide] showed an IC50 (HCMV wild-type) greater than 50 µg/mL, an IC50 (HSV-1) greater than 50 µg/mL and an IC50 (VZV strain Ellen) greater than 10 µg/mL. It also gave an inhibition at 10 µg/mL (VZV strain Ellen) of 36%.

`CC(=O)Nc1ccc(NC(=S)Nc2cc(Cl)c(-n3cccc3)cc2Oc2ccc(Cl)cc2)cc1` [Example 900, N-(4-{3-[5-Chloro-2-(4-chloro-phenoxy)-4-pyrrol-1-yl-phenyl]-thioureido}-phenyl)-acetamide] gave an IC50 (HCMV wild-type) of 2 µg/mL (≈ 3.91 µM), an IC50 (HSV-1) greater than 10 µg/mL and an IC50 (VZV strain Ellen) of 2.5 µg/mL (≈ 4.89 µM). For the same molecule, the inhibition at 10 µg/mL (VZV strain Ellen) was 124%.

Molecule `COc1cc(OC)c(NC(=S)Nc2ccc(NC(C)=O)c(OC)c2)cc1Cl` [Example 274, N-{4-[3-(5-Chloro-2,4-dimethoxy-phenyl)-thioureido]-2-methoxy-phenyl}-acetamide] has an IC50 (HCMV wild-type) greater than 50 µg/mL, an IC50 (HSV-1) of 5 µg/mL (≈ 12.2 µM) and an IC50 (VZV strain Ellen) greater than 10 µg/mL. For the same molecule, the inhibition at 10 µg/mL (VZV strain Ellen) was 15%.

Molecule `COc1ccc(NC(=S)Nc2ccc(NC(C)=O)cc2)c(NCc2ccccc2)c1` [Example 245, N-{4-[3-(2-Benzylamino-4-methoxy-phenyl)-thioureido]-phenyl}-acetamide] has an IC50 (HCMV wild-type) greater than 10 µg/mL, an IC50 (HSV-1) greater than 10 µg/mL and an IC50 (VZV strain Ellen) of 3.5 µg/mL (≈ 8.32 µM). For the same molecule, the inhibition at 10 µg/mL (VZV strain Ellen) was 73%.

`CC(=O)Nc1ccc(NC(=S)Nc2ccc(Cl)c(C(F)(F)F)c2)cc1` [Example 112, N-{4-[3-(4-Chloro-3-trifluoromethyl-phenyl)-thioureido]-phenyl}-acetamide] showed an IC50 (HCMV wild-type) of 3 µg/mL (≈ 7.74 µM), an IC50 (HSV-1) of 5 µg/mL (≈ 12.9 µM) and an IC50 (VZV strain Ellen) greater than 10 µg/mL. It also gave an inhibition at 10 µg/mL (VZV strain Ellen) of 55%.

`CC(=O)Nc1ccc(NC(=S)Nc2cc(Cl)c(Oc3ccccc3)c(Cl)c2)cc1` [Example 885, N-{4-[3-(3,5-Dichloro-4-phenoxy-phenyl)-thioureido]-phenyl}-acetamide] gave an IC50 (HCMV wild-type) greater than 10 µg/mL, an IC50 (HSV-1) of 15 µg/mL (≈ 33.6 µM) and an IC50 (VZV strain Ellen) greater than 10 µg/mL. For the same molecule, the inhibition at 10 µg/mL (VZV strain Ellen) was 45%.

`CC(=O)Nc1ccc(NC(=S)Nc2ccc(N(C)CC(C)C)c(Cl)c2)cc1` [Example 907, N-(4-{3-[3-Chloro-4-(isobutyl-methyl-amino)-phenyl]-thioureido}-phenyl)-acetamide] gave an IC50 (HCMV wild-type) of 3 µg/mL (≈ 7.41 µM), an IC50 (HSV-1) greater than 10 µg/mL and an IC50 (VZV strain Ellen) greater than 10 µg/mL. For the same molecule, the inhibition at 10 µg/mL (VZV strain Ellen) was 19%.

Work on `COc1cc(OCc2ccccc2)c(NC(=S)Nc2ccc(NC(C)=O)cc2)cc1Cl` [Example 835, N-{4-[3-(2-Benzyloxy-5-chloro-4-methoxy-phenyl)-thioureido]-phenyl}-acetamide] yielded an IC50 (HCMV wild-type) greater than 10 µg/mL, an IC50 (HSV-1) of 8 µg/mL (≈ 17.5 µM) and an IC50 (VZV strain Ellen) greater than 10 µg/mL. For the same molecule, the inhibition at 10 µg/mL (VZV strain Ellen) was 38%.

With `CCOc1cc(OC)c(NC(=S)Nc2ccc(NC(C)=O)cc2)cc1Cl` [Example 832, N-{4-[3-(5-Chloro-4-ethoxy-2-methoxy-phenyl)-thioureido]-phenyl}-acetamide] the IC50 (HCMV wild-type) was greater than 50 µg/mL, the IC50 (HSV-1) was 9 µg/mL (≈ 22.8 µM) and the IC50 (VZV strain Ellen) was greater than 10 µg/mL. It also gave an inhibition at 10 µg/mL (VZV strain Ellen) of 15%.

`CC(=O)Nc1ccc(NC(=S)Nc2cc(Cl)c(OCC#N)c(Cl)c2)cc1` [Example 886, N-(4-{3-[3,5-Dichloro-4-(2-nitrilo-ethoxy)-phenyl]-thioureido}-phenyl)-acetamide] gave an IC50 (HCMV wild-type) of 10 µg/mL (≈ 24.4 µM), an IC50 (HSV-1) of 25 µg/mL (≈ 61.1 µM) and an IC50 (VZV strain Ellen) greater than 15 µg/mL. It also gave an inhibition at 10 µg/mL (VZV strain Ellen) of 50%.

With `COc1cc(OC)c(NC(=S)Nc2cccc(NC(C)=O)c2)cc1Cl` [Example 100, N-{3-[3-(5-Chloro-2,4-dimethoxy-phenyl)-thioureido]-phenyl}-acetamide] the IC50 (HCMV wild-type) was greater than 50 µg/mL, the IC50 (HSV-1) was 40 µg/mL (≈ 105 µM) and the IC50 (VZV strain Ellen) was greater than 10 µg/mL. For the same molecule, the inhibition at 10 µg/mL (VZV strain Ellen) was 19%.

Work on `CCOc1ccc(NC(=S)Nc2ccc(NC(C)=O)cc2)cc1Cl` [Example 268, N-{4-[3-(3-Chloro-4-ethoxy-phenyl)-thioureido]-phenyl}-acetamide] yielded an IC50 (HCMV wild-type) of 10 µg/mL (≈ 27.5 µM), an IC50 (HSV-1) greater than 10 µg/mL and an IC50 (VZV strain Ellen) greater than 10 µg/mL. The inhibition at 10 µg/mL (VZV strain Ellen) was 14%.

Work on `CC(=O)Nc1ccc(NC(=S)Nc2ccc(OC3CCCCC3)c(Cl)c2)cc1` [Example 345, N-{4-[3-(3-Chloro-4-cyclohexyloxy-phenyl)-thioureido]-phenyl}-acetamide] yielded an IC50 (HCMV wild-type) greater than 10 µg/mL, an IC50 (HSV-1) greater than 10 µg/mL and an IC50 (VZV strain Ellen) greater than 10 µg/mL. It also gave an inhibition at 10 µg/mL (VZV strain Ellen) of 30%.

Molecule `CC(=O)Nc1ccc(NC(=S)Nc2ccc(NC(=O)CN3CCOCC3)c(Cl)c2)cc1` [Example 366, N-{4-[3-(4-Acetylamino-phenyl)-thioureido]-2-chloro-phenyl}-2-morpholin-4-yl-acetamide] has an IC50 (HCMV wild-type) greater than 10 µg/mL, an IC50 (HSV-1) greater than 10 µg/mL and an IC50 (VZV strain Ellen) greater than 10 µg/mL. For the same molecule, the inhibition at 10 µg/mL (VZV strain Ellen) was 16%.

In the case of `COc1cc(OC)c(NC(=S)Nc2cc(O)c(NC(C)=O)cc2Cl)cc1Cl` [Example 321, N-{5-Chloro-4-[3-(5-chloro-2,4-dimethoxy-phenyl)-thioureido]-2-hydroxy-phenyl}-acetamide], the IC50 (HCMV wild-type) is reported as 18 µg/mL (≈ 41.8 µM), the IC50 (HSV-1) is reported as 7 µg/mL (≈ 16.3 µM) and the IC50 (VZV strain Ellen) is reported as greater than 10 µg/mL. The inhibition at 10 µg/mL (VZV strain Ellen) was 28%.

For `CC(=O)Nc1ccc(NC(=S)Nc2ccc(C#N)c(Cl)c2)cc1` [Example 899, N-{4-[3-(3-Chloro-4-cyano-phenyl)-thioureido]-phenyl}-acetamide], the IC50 (HCMV wild-type) was greater than 10 µg/mL, the IC50 (HSV-1) was 10 µg/mL (≈ 29 µM) and the IC50 (VZV strain Ellen) was greater than 10 µg/mL. For the same molecule, the inhibition at 10 µg/mL (VZV strain Ellen) was 7%.
